Read-outs that look alike come from different tables or passages of the source. Each block holds one compound with its values, some of them ahead of it. Peptide text beside a SMILES is read from it. * marks the point of attachment. Biotin = O=C1N[C@H]2[C@H](CS[C@H]2CCCCC(=O)*)N1
Assays:
Assay in all cases: Apparent affinity (Kd) by titration of PL peptide in the G assay
Assay type in all cases: binding
[1] = target: T1, PDZ-domain polypeptide (GST/PDZ fusion protein) (Homo sapiens, UniProt O75970)
T1 construct: made in house; host or cells: E. coli (DH5alpha, BL21 or JM109)
T1 sequence (O75970 whole entry, the tested form may be a part): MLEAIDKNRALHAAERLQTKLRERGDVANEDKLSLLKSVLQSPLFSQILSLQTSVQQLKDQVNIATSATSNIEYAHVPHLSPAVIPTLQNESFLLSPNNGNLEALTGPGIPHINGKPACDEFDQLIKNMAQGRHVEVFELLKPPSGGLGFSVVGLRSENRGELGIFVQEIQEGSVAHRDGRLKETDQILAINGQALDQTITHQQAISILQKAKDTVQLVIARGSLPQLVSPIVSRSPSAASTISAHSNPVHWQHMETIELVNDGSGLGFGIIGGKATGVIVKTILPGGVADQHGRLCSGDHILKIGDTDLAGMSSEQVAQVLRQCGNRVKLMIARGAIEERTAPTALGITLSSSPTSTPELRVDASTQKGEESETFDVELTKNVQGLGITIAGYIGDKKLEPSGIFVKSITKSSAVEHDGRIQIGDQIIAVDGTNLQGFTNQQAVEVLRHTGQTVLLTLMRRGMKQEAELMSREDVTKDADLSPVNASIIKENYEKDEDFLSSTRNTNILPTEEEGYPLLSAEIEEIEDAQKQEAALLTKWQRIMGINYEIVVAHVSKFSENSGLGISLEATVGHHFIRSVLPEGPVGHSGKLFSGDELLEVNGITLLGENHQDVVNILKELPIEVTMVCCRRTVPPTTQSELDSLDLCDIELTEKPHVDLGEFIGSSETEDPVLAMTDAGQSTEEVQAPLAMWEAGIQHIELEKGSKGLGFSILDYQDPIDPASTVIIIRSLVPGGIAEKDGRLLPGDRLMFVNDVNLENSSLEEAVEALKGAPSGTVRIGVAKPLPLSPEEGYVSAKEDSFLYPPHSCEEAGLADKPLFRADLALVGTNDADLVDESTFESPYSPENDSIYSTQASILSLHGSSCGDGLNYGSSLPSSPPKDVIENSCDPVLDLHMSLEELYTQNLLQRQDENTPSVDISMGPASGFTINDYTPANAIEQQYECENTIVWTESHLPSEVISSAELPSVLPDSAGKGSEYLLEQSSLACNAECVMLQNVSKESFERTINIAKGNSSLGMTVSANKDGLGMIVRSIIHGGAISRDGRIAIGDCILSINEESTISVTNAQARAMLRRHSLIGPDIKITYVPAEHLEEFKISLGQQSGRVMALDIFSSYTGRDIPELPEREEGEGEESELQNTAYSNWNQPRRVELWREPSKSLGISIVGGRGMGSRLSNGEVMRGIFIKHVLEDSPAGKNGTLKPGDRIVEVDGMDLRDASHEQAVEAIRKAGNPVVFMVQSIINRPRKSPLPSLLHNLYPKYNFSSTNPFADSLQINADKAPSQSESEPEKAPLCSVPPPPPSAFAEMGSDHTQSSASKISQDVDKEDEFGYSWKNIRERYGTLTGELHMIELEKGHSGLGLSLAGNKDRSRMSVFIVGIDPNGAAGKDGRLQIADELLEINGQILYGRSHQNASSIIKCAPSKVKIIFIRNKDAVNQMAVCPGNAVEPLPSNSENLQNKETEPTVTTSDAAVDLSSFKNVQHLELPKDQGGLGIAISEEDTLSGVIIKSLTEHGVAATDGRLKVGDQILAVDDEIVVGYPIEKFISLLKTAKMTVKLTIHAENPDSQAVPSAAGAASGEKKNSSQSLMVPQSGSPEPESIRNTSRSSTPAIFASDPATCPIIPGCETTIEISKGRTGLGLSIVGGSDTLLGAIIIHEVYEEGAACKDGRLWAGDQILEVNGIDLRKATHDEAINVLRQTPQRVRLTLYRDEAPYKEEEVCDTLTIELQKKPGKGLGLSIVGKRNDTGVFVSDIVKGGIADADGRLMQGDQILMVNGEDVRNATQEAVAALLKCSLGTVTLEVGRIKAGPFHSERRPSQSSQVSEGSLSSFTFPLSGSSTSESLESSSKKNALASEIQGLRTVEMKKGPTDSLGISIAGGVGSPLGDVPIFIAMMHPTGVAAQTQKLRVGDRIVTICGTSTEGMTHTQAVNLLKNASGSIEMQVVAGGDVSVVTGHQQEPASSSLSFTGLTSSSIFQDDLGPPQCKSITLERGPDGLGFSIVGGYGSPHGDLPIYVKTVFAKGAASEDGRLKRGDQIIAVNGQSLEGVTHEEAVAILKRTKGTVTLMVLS
Procedure, shortened: (§1)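 A fixed concentration of GST/PDZ fusion protein, 5 ug/ml by default, was mixed in solution with increasing labeled PL peptide (e.g. 0.1 uM-1 mM). Reaction times ranged from 10 minutes to 2 days at 4-37° C. Complexes were separated from free peptide and detected via the label as in the G assay, apparent affinity coming from the saturating concentration.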

[2] = target: T2, PDZ-domain polypeptide (GST/PDZ fusion protein) (Homo sapiens, UniProt Q02410)
T2 construct: made in house; host or cells: E. coli (DH5alpha, BL21 or JM109)
T2 sequence (Q02410 1-837): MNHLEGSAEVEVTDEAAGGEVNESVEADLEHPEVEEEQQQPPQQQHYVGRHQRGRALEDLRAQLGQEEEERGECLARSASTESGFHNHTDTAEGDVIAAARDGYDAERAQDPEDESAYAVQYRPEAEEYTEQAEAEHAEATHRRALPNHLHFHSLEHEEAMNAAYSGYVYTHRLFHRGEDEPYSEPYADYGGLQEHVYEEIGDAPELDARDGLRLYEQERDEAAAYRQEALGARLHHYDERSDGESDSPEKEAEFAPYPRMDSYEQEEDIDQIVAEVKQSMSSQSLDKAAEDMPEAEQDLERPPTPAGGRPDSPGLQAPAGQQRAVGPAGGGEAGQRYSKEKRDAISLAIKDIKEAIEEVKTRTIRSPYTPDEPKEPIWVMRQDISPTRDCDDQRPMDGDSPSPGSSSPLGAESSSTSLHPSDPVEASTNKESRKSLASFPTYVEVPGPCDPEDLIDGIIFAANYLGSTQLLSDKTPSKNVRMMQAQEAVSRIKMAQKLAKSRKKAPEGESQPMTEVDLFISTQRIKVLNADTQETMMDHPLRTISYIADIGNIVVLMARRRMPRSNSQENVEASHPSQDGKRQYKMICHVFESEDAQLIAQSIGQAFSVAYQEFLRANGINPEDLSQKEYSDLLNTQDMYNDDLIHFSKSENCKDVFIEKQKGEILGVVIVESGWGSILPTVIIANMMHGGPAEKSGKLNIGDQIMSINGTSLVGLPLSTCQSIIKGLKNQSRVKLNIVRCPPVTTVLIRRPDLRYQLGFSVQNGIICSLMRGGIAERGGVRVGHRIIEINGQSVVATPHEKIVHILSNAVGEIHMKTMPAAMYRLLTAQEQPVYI
Procedure, shortened: as §1

[3] = target: T3, PDZ-domain polypeptide (GST/PDZ fusion protein) (Homo sapiens, UniProt Q96JH8); settings: PDZ FLJ 10324, PDZ Domain 1
T3 construct: made in house; host or cells: E. coli (DH5alpha, BL21 or JM109)
T3 sequence (Q96JH8 1-1075): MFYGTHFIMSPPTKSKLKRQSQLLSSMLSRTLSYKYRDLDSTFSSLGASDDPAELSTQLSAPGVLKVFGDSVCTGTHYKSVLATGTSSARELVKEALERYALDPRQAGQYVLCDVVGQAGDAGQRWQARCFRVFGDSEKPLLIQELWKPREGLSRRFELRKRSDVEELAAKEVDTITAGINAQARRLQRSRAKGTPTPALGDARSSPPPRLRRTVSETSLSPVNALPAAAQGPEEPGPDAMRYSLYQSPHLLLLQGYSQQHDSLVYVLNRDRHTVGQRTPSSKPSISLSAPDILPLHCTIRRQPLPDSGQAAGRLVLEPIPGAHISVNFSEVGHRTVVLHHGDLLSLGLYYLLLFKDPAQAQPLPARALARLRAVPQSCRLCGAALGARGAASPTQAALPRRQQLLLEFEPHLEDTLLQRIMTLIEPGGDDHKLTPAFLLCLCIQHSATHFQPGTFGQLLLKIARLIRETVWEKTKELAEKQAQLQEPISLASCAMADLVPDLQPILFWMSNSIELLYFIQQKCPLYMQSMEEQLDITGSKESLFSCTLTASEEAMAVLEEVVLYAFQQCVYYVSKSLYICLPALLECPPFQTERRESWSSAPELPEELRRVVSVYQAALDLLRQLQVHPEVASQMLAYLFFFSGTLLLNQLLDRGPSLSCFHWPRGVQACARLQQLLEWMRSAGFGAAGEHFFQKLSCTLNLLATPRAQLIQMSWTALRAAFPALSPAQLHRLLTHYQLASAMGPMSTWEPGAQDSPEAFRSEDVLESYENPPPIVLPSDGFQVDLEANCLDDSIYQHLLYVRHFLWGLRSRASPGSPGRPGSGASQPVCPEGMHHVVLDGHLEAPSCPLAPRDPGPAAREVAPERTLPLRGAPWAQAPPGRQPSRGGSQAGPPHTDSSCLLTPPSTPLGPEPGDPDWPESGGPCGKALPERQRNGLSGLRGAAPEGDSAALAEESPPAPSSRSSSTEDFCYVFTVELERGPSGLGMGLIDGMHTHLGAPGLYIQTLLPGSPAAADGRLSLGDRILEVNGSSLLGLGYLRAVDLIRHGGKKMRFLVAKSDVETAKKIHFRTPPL
Procedure, shortened: as §1

[4] = PDZ MUPP-1, PDZ Domain 7, titration of the PL peptide, read-out: Peptide Optimal Conc (Kd, dissociation constant)
[5] = titration of the PL peptide, read-out: Peptide Optimal Conc (Kd, dissociation constant)

Compound: CC[C@H](C)[C@H](NC(=O)[C@H](CC(=O)O)NC(=O)[C@H](CCC(=O)O)NC(=O)[C@H](CCCNC(=N)N)NC(=O)[C@@H](NC(=O)CCCC[C@@H]1SC[C@@H]2NC(=O)N[C@@H]21)[C@@H](C)O)C(=O)N[C@@H](Cc1ccc(O)cc1)C(=O)N[C@H](C(=O)N[C@@H](CC(N)=O)C(=O)N[C@@H](Cc1ccc(O)cc1)C(=O)N1CCC[C@H]1C(=O)N[C@H](C(=O)N[C@@H](Cc1ccccc1)C(=O)N[C@@H](CO)C(=O)N[C@@H](CCCNC(=N)N)C(=O)N[C@@H](CCCNC(=N)N)C(=O)N1CCC[C@H]1C(=O)N[C@@H](CCCCN)C(=O)N[C@H](C(=O)N[C@@H](CCCNC(=N)N)C(=O)N[C@H](C(=O)O)C(C)C)[C@@H](C)O)[C@@H](C)O)C(C)C [DNAM-1] (Biotin-TREDIYVNYPTFSRRPKTRV-OH; C-terminus assumed)
Kd ([1]; Peptide Optimal Conc (Kd by titration of the PL peptide), PDZ MUPP-1, PDZ Domain 10): 2500 nM

Kd [1, 4]: 4000 nM
Kd ([2]; PDZ Mint 1, PDZ Domain 1, 2, titration of the PL peptide, read-out: Peptide Optimal Conc (Kd, dissociation constant)): 6000 nM
Kd [3, 5]: 1000 nM
Compound: CC[C@H](C)[C@H](NC(=O)[C@H](Cc1ccc(O)cc1)NC(=O)[C@H](CC(C)C)NC(=O)[C@H](CCC(N)=O)NC(=O)[C@H](Cc1c[nH]cn1)NC(=O)[C@H](CO)NC(=O)[C@H](C)NC(=O)[C@H](CC(C)C)NC(=O)[C@@H](NC(=O)[C@H](CC(=O)O)NC(=O)[C@H](CCSC)NC(=O)[C@H](Cc1ccccc1)NC(=O)[C@@H]1CCCN1C(=O)[C@H](CCCNC(=N)N)NC(=O)[C@@H](NC(=O)[C@H](CC(C)C)NC(=O)[C@H](CC(N)=O)NC(=O)[C@H](CC(=O)O)NC(=O)[C@@H](NC(=O)[C@H](CO)NC(=O)CCCC[C@@H]1SC[C@@H]2NC(=O)N[C@@H]21)[C@@H](C)O)C(C)C)[C@@H](C)O)C(=O)O [presenilin-2] (Biotin-STDNLVRPFMDTLASHQLYI-OH; C-terminus assumed)

Kd ([3]; read-out: Peptide Optimal Conc (Kd by titration of the PL peptide)): 300 nM
Compound: CC(C)C[C@H](NC(=O)[C@H](Cc1c[nH]c2ccccc12)NC(=O)[C@H](Cc1c[nH]cn1)NC(=O)[C@H](CCCNC(=N)N)NC(=O)[C@H](CC(C)C)NC(=O)[C@@H](NC(=O)[C@H](Cc1ccccc1)NC(=O)[C@H](CCC(N)=O)NC(=O)[C@H](CCCNC(=N)N)NC(=O)[C@@H](NC(=O)[C@H](CCC(=O)O)NC(=O)CNC(=O)[C@H](CCCNC(=N)N)NC(=O)[C@H](CC(=O)O)NC(=O)[C@@H](NC(=O)[C@H](CC(C)C)NC(=O)[C@H](CCC(=O)O)NC(=O)[C@H](CCCNC(=N)N)NC(=O)CCCC[C@@H]1SC[C@@H]2NC(=O)N[C@@H]21)C(C)C)C(C)C)[C@@H](C)O)C(=O)N[C@@H](CCCCN)C(=O)N[C@H](C(=O)O)C(C)C [Dopamine transporter (Na+-dependent)] (Biotin-RELVDRGEVRQFTLRHWLKV-OH; C-terminus assumed)

Kd [1, 4]: 1500 nM
Kd ([2]; PDZ Mint 1, PDZ Domain 1, titration of the PL peptide, read-out: Peptide Optimal Conc (Kd, dissociation constant)): 2000 nM
Kd [3, 5]: 1000 nM
Compound: CC[C@H](C)[C@H](NC(=O)[C@H](Cc1ccc(O)cc1)NC(=O)[C@@H](NC(=O)[C@@H]1CCCN1C(=O)[C@H](CCC(N)=O)NC(=O)[C@H](CCC(=O)O)NC(=O)[C@H](CCC(N)=O)NC(=O)[C@H](C)NC(=O)[C@@H](NC(=O)[C@H](CC(C)C)NC(=O)[C@H](CC(C)C)NC(=O)[C@H](CCCNC(=N)N)NC(=O)[C@H](Cc1ccc(O)cc1)NC(=O)[C@H](CCSC)NC(=O)[C@H](C)NC(=O)[C@H](C)NC(=O)[C@@H]1CCCN1C(=O)[C@H](CCSC)NC(=O)[C@@H](NC(=O)[C@H](CCCCN)NC(=O)CCCC[C@@H]1SC[C@@H]2NC(=O)N[C@@H]21)[C@@H](C)O)[C@@H](C)O)C(C)C)C(=O)O [MINT-1] (Biotin-KTMPAAMYRLLTAQEQPVYI-OH; C-terminus assumed)

Compound: CC[C@H](C)[C@H](NC(=O)[C@H](CCCCN)NC(=O)[C@@H](NC(=O)[C@H](CO)NC(=O)[C@@H]1CCCN1C(=O)[C@H](Cc1ccccc1)NC(=O)[C@@H](NC(=O)[C@@H](NC(=O)[C@H](CCCNC(=N)N)NC(=O)[C@H](CCC(=O)O)NC(=O)[C@H](CC(C)C)NC(=O)[C@H](CC(C)C)NC(=O)[C@H](CC(C)C)NC(=O)[C@@H](NC(=O)CNC(=O)[C@@H](NC(=O)CCCC[C@@H]1SC[C@@H]2NC(=O)N[C@@H]21)C(C)C)[C@@H](C)O)C(C)C)[C@@H](C)CC)C(C)C)C(=O)N[C@@H](C)C(=O)N[C@H](C(=O)N[C@@H](CC(C)C)C(=O)N[C@H](C(=O)O)C(C)C)[C@@H](C)O [Adenovirus E4 Type9]
Kd ([1]; PDZ MUPP-1, PDZ Domain 11, Protein Optimal Conc 5, read-out: Peptide Optimal Conc (Kd by titration of the PL peptide)): 100 nM
Kd ([3]; Protein Optimal Conc 5, read-out: Peptide Optimal Conc (Kd by titration of the PL peptide)): 100 nM

Compound: CC[C@H](C)[C@H](NC(=O)[C@H](C)NC(=O)[C@H](CC(C)C)NC(=O)[C@H](Cc1c[nH]c2ccccc12)NC(=O)[C@H](Cc1c[nH]cn1)NC(=O)[C@H](CCC(N)=O)NC(=O)[C@H](CC(C)C)NC(=O)[C@H](CCC(N)=O)NC(=O)[C@H](Cc1ccccc1)NC(=O)[C@H](CCC(N)=O)NC(=O)[C@H](CCCNC(=N)N)NC(=O)[C@@H](NC(=O)[C@H](CC(=O)O)NC(=O)[C@H](CCCNC(=N)N)NC(=O)[C@H](CCC(N)=O)NC(=O)[C@H](C)NC(=O)[C@@H](NC(=O)[C@H](CC(C)C)NC(=O)[C@H](Cc1c[nH]cn1)NC(=O)[C@H](Cc1c[nH]cn1)NC(=O)CCCC[C@@H]1SC[C@@H]2NC(=O)N[C@@H]21)C(C)C)[C@@H](C)CC)C(=O)O [noradrenaline transporter] (Biotin-HHLVAQRDIRQFQLQHWLAI-OH; C-terminus assumed)
Kd ([1]; Peptide Optimal Conc (Kd by titration of the PL peptide), PDZ MUPP-1, PDZ Domain 3): 400 nM
Kd ([1]; Peptide Optimal Conc (Kd by titration of the PL peptide), PDZ MUPP-1, PDZ Domain 7): 800 nM
Kd ([1]; Peptide Optimal Conc (Kd by titration of the PL peptide), PDZ MUPP-1, PDZ Domain 9): 700 nM
Kd ([2]; Peptide Optimal Conc (Kd by titration of the PL peptide), PDZ Mint 1, PDZ Domain 1, 2): 500 nM
Kd ([3]; Peptide Optimal Conc (Kd by titration of the PL peptide)): 600 nM

Kd ([2]; PDZ Mint 1, PDZ Domain 1, 2, read-out: Peptide Optimal Conc (non-zero value: Kd by titration of the PL peptide)): 800 nM
Compound: CC[C@H](C)[C@H](NC(=O)CNC(=O)[C@H](CO)NC(=O)[C@H](Cc1ccccc1)NC(=O)[C@@H](NC(=O)[C@H](CS)NC(=O)CNC(=O)CNC(=O)[C@H](C)NC(=O)[C@@H]1CCCN1C(=O)[C@@H](NC(=O)[C@@H]1CCCN1C(=O)CCCC[C@@H]1SC[C@@H]2NC(=O)N[C@@H]21)[C@@H](C)CC)[C@@H](C)O)C(=O)N[C@@H](Cc1ccccc1)C(=O)N1CCC[C@H]1C(=O)N[C@H](C(=O)N[C@@H](CC(C)C)C(=O)N[C@H](C(=O)N[C@@H](CO)C(=O)N1CCC[C@H]1C(=O)N[C@@H](CC(C)C)C(=O)O)[C@@H](C)O)[C@@H](C)O [KIA 1481] (Biotin-PIPAGGCTFSGIFPTLTSPL-OH; C-terminus assumed)
